Data from PMC6127852 (Journal of Enzyme Inhibition and Medicinal Chemistry, 2018).

Tests used:
[1] = system: bloodstream form T. brucei (strain 221); experiment: Anti-trypanosomal screening, resazurin; format: cell-based; details: Trypanosoma brucei, mean of triplicate ± SEM
How it was run: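 Parasites grown in modified Iscove's medium with compound in triplicate; resazurin added at 48 h and plates read after a further 16 h.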

polyA-polyU [2] = experiment: UV–Vis titration with polyA-polyU (Scatchard); format: binding; details: for Hypochromic effect H/%, polyA-polyU: UV–Vis titration, calculated by Scatchard equation; for Hypochromic effect H/%, polyA-polyU / log Ks, polyA-polyU: PBS, pH 7; for log Ks, polyA-polyU: binding constant, Scatchard
How it was run: (§1)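 Polynucleotides titrated into compound at 1.48 × 10^−5 mol dm^−3 in PBS (I = 0.05 mol dm^−3, pH 7.0), with UV–Vis spectra in 1 cm quartz cells; ctDNA sonicated and filtered, concentration as nucleobases. Ks and n from Scatchard analysis, in some cases only from data at r ≥ 0.1.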

S. aureus ATCC 25923 = experiment: Broth microdilution MIC, S. aureus ATCC 25923; format: cell-based; details: Staphylococcus aureus, ATCC25923; Table S2
How it was run: (§2)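 Growth inhibition is assessed in Mueller–Hinton broth supplemented with calcium and magnesium cations, following the CLSI standard microdilution format. The MIC is reported from three replicate tests.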

E. faecalis ATCC 29212 = experiment: Broth microdilution MIC, E. faecalis ATCC 29212; format: cell-based; details: Enterococcus faecalis, ATCC29212; Table S2
How it was run: as §2

A. baumannii ATCC 19606 = experiment: Broth microdilution MIC, A. baumannii ATCC 19606; format: cell-based; details: Acinetobacter baumannii, ATCC19606; Table S2
How it was run: as §2

K. pneumonia ATCC 700803 = experiment: Broth microdilution MIC, K. pneumoniae ATCC 700803; format: cell-based; details: Klebsiella pneumoniae, ATCC700803; Table S2
How it was run: as §2

calf thymus ctDNA = experiment: UV–Vis titration with ctDNA (Scatchard); format: binding; details: for Hypochromic effect H/%, ctDNA: calculated by Scatchard equation
How it was run: as §1

P. aeruginosa ATCC 27853 = experiment: Broth microdilution MIC, P. aeruginosa ATCC 27853; format: cell-based; details: Pseudomonas aeruginosa, ATCC27853; Table S2
How it was run: as §2

polyC-polyG = experiment: UV–Vis titration with polyC-polyG (Scatchard); format: binding; details: PBS, pH 7; for Hypochromic effect H/%, polyC-polyG: UV–Vis titration, calculated by Scatchard equation; for log Ks, polyC-polyG: binding constant, Scatchard
How it was run: as §1

[3] = system: L6 cells (a rat myoblast line); experiment: Cytotoxicity against mammalian cells, resazurin; format: cell-based; details: L6, 144 h, 6 d incubation
Protocol: Cytotoxicity against mammalian cells was also assessed using microtitre plates. Briefly, L6 cells (a rat myoblast line) were seeded at 1 × 10^4 ml^−1 in 200 µl of growth medium containing different compound concentrations. The plates were then incubated for 6 d at 37 °C and 20 µl resazurin added to each well. After a further 8 h incubation, the fluorescence was determined using a Spectramax plate reader, as outlined above.

E. faecium VRE = experiment: Broth microdilution MIC, VRE clinical strain; format: cell-based; details: Enterococcus faecium
How it was run: (§3)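 MICs were set by CLSI broth microdilution in cation (Ca2+, Mg2+)-adjusted Mueller–Hinton broth, in triplicate. Panel: S. aureus ATCC 25923, MRSA, MSSA, E. faecalis, VRE E. faecium, E. coli ATCC 25925, P. aeruginosa ATCC 27853, A. baumannii ATCC 19606 and ESBL K. pneumoniae ATCC 27736.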

[4] = system: Gram-positive and Gram-negative bacteria; experiment: Anti-microbial activity overall (all tested bacteria); format: cell-based; details: summary over tested strains; read-out: MIC, anti-microbial activities overall
Protocol: (§4) The compounds were evaluated for their in vitro anti-bacterial activity against Gram-positive bacteria: S. aureus (ATCC 25923), MRSA, methicillin-sensitive S. aureus (MSSA), E. faecalis, vancomycin-resistant E. faecium (VREF), and Gram-negative bacteria: E. coli (ATCC 25925), P. aeruginosa (ATCC 27853), A. baumannii (ATCC 19606) and ESBL-producing K. pneumoniae (ATCC 27736). Standard broth microdilution method as recommended in guidelines of Clinical and Laboratory Standards Institute[61] ^, [65] ^, [66] was applied and the minimum inhibitory concentration (MIC) of compounds was tested. In short, testing was performed in U-bottomed 96-well sterile plastic microdilution trays (Falcon 3077, Becton Dickinson Labware, Franklin Lakes, NJ) in cation (Ca^2+ and Mg^2+) adjusted Mueller–Hinton broth medium (Becton Dickinson and Co., Cockeysville, MD). All testings were performed in triplicate.

E. coli ATCC 25925 = experiment: Broth microdilution MIC, E. coli ATCC 25925; format: cell-based; details: Escherichia coli, ATCC25925; Table S2
How it was run: as §2

S. aureus MRSA = experiment: Broth microdilution MIC, MRSA clinical strain; format: cell-based; details: Staphylococcus aureus, antibiotic-resistant clinical strain
How it was run: as §3

[5] = system: polyG-polyC (polyC-polyG) (RNA, polymer) G/C; experiment: UV-Vis titration, Scatchard; details: PBS, I = 0.05 M (Table 1 says I = 0.015 M), cations not specified, I = 0.015 M (Methods: 0.05 M), pH 7, per base
polyA-polyU [6] = experiment: Thermal melting (ΔTm) of polyA-polyU; format: binding; details: for ΔTm, polyA-polyU, r = 0.1: PBS, pH 7; for ΔTm, polyA-polyU, r = 0.3 / ΔTm, polyA-polyU, r = 0.5: first melting midpoint; for ΔTm, polyA-polyU, r = 0.3, second melting midpoint / ΔTm, polyA-polyU, r = 0.5, second melting midpoint: footnote c: biphasic melting curve
How it was run: (§5)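 UV melting monitored at 260 nm in 1 cm cuvettes, ligand absorbance subtracted and normalised; ΔTm = Tm(complex) − Tm(free nucleic acid), mean of at least two runs, error ±0.5 °C. Compound tested at r = 0.1, 0.3, 0.5 and 0.7 eq ([compound]/[polynucleotide]) with ctDNA and polyA-polyU.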

K. pneumoniae ESBL = experiment: Broth microdilution MIC, ESBL K. pneumoniae clinical strain; format: cell-based; details: Klebsiella pneumoniae
Protocol: as §4

ctDNA = experiment: Thermal melting (ΔTm) of ctDNA; format: binding, calf; details: PBS, pH 7; for ΔTm, ctDNA, r = 0.3: r = [compound]/[polynucleotide] 0.3, error ±0.5 °C
How it was run: as §5

[7] = system: polyA-polyU (RNA, polymer) A/U; experiment: UV melting at 260 nm; details: PBS, I = 0.05 M, cations not specified, pH 7, r = 0.3 [compound]/[polynucleotide], error ±0.5, biphasic
S. aureus MSSA = experiment: Broth microdilution MIC, MSSA clinical strain; format: cell-based; details: Staphylococcus aureus
How it was run: as §3

E. coli ESBL = experiment: Broth microdilution MIC, ESBL E. coli clinical strain; format: cell-based; details: Escherichia coli
P. aeruginosa ESBL = experiment: Broth microdilution MIC, ESBL P. aeruginosa clinical strain; format: cell-based; details: Pseudomonas aeruginosa
[8] = system: polyA-polyU (RNA, polymer) A/U; experiment: UV-Vis titration, Scatchard; details: PBS, I = 0.05 M (Table 1 says I = 0.015 M), cations not specified, I = 0.015 M (Methods: 0.05 M), pH 7, per base

SMILES | IC50 [1] [µM] | IC90 [1] [µM] | MIC (S. aureus ATCC 25923) [µg/mL] | MIC (E. faecalis ATCC 29212) [µg/mL] | MIC (A. baumannii ATCC 19606) [µg/mL] | MIC (K. pneumonia ATCC 700803) [µg/mL] | melting point [°C] | MIC (P. aeruginosa ATCC 27853) [µg/mL] | Hypochromic effect H/%, polyC-polyG (polyC-polyG) [%] | log Ks, polyC-polyG (polyC-polyG) | IC50 [3] [µM] | MIC (E. faecium VRE) [µg/mL] | MIC (E. coli ATCC 25925) [µg/mL] | MIC (S. aureus MRSA) [µg/mL] | Hypochromic effect H/%, polyA-polyU (polyA-polyU [2]) [%] | log Ks, polyA-polyU (polyA-polyU [2]) | log Ks [5] | Hypochromic effect H/%, ctDNA (calf thymus ctDNA; UV–Vis titration, PBS, pH 7) [%] | ΔTm, polyA-polyU, r = 0.1 (polyA-polyU [6]) [°C] | ΔTm, polyA-polyU, r = 0.3 (polyA-polyU [6]) [°C] | also measured
COc1ccc(-n2cc(COc3ccc(-c4nc5cc(C(=N)N)ccc5[nH]4)cc3)nn2)cc1.Cl.Cl [Compound 7b, 2–(4-((1–(4-Methoxyphenyl)-1H-1,2,3-triazol-4-yl)methoxy)phenyl)-1H-benz[d]imidazole-5-carboximidamide dihydrochloride] | 1.5 ± 0.3 | 8.1 ± 0.6 | > 256 | 128 | > 256 | > 256 | 195 to 197 | > 256 | 13.7 | 6.27 | 302 ± 15 | 256 | > 256 | – | – | – | – | – | – | – | Hypochromic effect H/%, polyA-polyU (from experimental data) (polyA-polyU [2]; footnote e: calculated from experimental data): 27.9 ^e %; Hypochromic effect H/%, ctDNA (from experimental data) (calf thymus ctDNA; UV–Vis titration, PBS, pH 7, footnote e: calculated from experimental data): 22.1 ^e %; MIC [4]: ≥ 128 µg/mL
Cl.Cl.N=C(N)c1ccc2[nH]c(-c3ccc(OCc4cn(CSc5ccccc5)nn4)cc3)nc2c1 [Compound 7e, 2–(4-((1-((Phenylthio)methyl)-1H-1,2,3-triazol-4-yl)methoxy)phenyl)-1H-benz[d]imidazole-5-carboximidamide dihydrochloride] | 10.2 ± 1.3 | 15.9 ± 0.4 | 32 | 128 | > 256 | 128 | 173 to 176 | 64 | 5.79 | 5.89 | – | 64 | 32 | 32 | 31.7 | 6.20 | 5.89 | 38.2 | 0.39 | 1.11 | log Ks, ctDNA (calf thymus ctDNA; binding constant, Scatchard, PBS, pH 7): 5.33; ΔTm, polyA-polyU, r = 0.3, second melting midpoint (polyA-polyU [6]): 12.58^c °C; ΔTm, polyA-polyU, r = 0.5 (polyA-polyU [6]): 1.11 °C; ΔTm, polyA-polyU, r = 0.5, second melting midpoint (polyA-polyU [6]): 15.04^c °C; MIC (K. pneumoniae ESBL): 16 µg/mL; ΔTm, ctDNA, r = 0.5 (ctDNA): 2.62 °C; ΔTm, ctDNA, r = 0.7 (ctDNA): 2.66 °C; ΔTm, ctDNA, r = 0.3 (ctDNA): 2.19 °C; ΔTm ([7]; second midpoint 12.58, per base): 1.11 °C; MIC (S. aureus MSSA): 128 µg/mL; MIC (E. coli ESBL): 32 µg/mL; MIC (P. aeruginosa ESBL): 32 µg/mL; log Ks [8]: 6.20
COc1ccc(-n2cc(COc3ccc(-c4nc5cc(C(=N)NC(C)C)ccc5[nH]4)cc3)nn2)cc1.Cl.Cl [Compound 8b, N-isopropyl-2–(4-((1–(4-methoxyphenyl)-1H-1,2,3-triazol-4-yl)methoxy)phenyl)-1H-benz[d]imidazole-5-carboximidamide dihydrochloride] | 1.1 ± 0.3 | 3.5 ± 0.2 | 128 | 64 | > 256 | > 256 | 188 to 191 | > 256 | 5.05 | 6.39 | > 300 | 128 | 256 | 16 | 57.8 | 5.27 | 6.39 | 29.7 | 1.17 | 1.32 | log Ks, ctDNA (range r ≥ 0.1) (calf thymus ctDNA; footnote f: mixed binding mode, calculated in range r ≥ 0.1): 6.06; ΔTm, polyA-polyU, r = 0.3, second melting midpoint (polyA-polyU [6]): 6.38^c °C; ΔTm, polyA-polyU, r = 0.5 (polyA-polyU [6]): 1.56 °C; ΔTm, polyA-polyU, r = 0.5, second melting midpoint (polyA-polyU [6]): 8.49^c °C; ΔTm, ctDNA, r = 0.5 (ctDNA): 3.96 °C; ΔTm, ctDNA, r = 0.7 (ctDNA): 4.47 °C; ΔTm, ctDNA, r = 0.3 (ctDNA): 4.03 °C; ΔTm ([7]; second midpoint 6.38, per base): 1.32 °C; MIC (S. aureus MSSA): 64 µg/mL; log Ks [8]: 5.27
